Measurements: patent US20050170391A1, “TAUT1 transporters expressed in blood brain barrier cells” (Xenoport, Inc., priority 2004, published 2005)
Where “and” joins values, the source holds several entries; their conditions need not be identical. Equal entries are not always repeated. One block for each molecule: values may come before it.

How the values were obtained:
TAUT1 [1] = target: T1, TAUT1 (Homo sapiens, UniProt P31641); assay: hTAUT1 competition uptake assay in HEK-TREx-TAUT1 cells; assay type: cell-based; design: expressed in transfected cells; host or cells: HEK-TREx cells (HEK-TREx-TAUT1 inducible line)
T1 sequence (P31641 1-620): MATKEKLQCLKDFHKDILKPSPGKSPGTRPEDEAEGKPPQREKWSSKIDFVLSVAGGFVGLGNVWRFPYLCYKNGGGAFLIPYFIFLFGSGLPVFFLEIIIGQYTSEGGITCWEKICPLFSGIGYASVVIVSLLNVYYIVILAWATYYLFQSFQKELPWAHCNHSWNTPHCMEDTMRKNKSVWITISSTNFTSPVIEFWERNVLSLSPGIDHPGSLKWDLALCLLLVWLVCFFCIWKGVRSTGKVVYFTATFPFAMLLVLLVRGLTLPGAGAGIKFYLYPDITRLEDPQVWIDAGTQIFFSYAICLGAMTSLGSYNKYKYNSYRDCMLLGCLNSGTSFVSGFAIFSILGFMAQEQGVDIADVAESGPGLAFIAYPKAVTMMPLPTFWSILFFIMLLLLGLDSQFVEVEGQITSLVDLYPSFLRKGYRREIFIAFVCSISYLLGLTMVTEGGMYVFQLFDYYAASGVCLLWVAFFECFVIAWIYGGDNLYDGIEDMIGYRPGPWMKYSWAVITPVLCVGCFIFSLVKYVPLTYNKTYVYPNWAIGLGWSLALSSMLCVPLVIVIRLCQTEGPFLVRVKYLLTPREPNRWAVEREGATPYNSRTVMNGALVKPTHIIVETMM
Method: A modified competition uptake assay was developed to determine the ability of a test compound(s) to inhibit the uptake of radiolabeled substrates into HEK-TREx-TAUT1 cells induced to over-express hTAUT. The results are stated as affinities (IC50).
The competition uptake assay were prepared as follows: Compounds were prepared for assay by diluting a 100 mM stock concentration (in DMSO) to the appropriate working concentration. Typically, seven-point dose response curves were prepared starting at a final assay concentration of 1 mM and carrying out three-fold dilutions. These dilutions were prepared by making a working “compound” plate that contained a 2× solution of the desired starting concentration of each test compound in duplicate in row A of a v-bottom microtiter plate. Six 3-fold serial dilutions (from row B to G) were made into the HBSS assay buffer (9.8 g/L Hank's Balance Salts (Sigma; H-1387), 2.6 g/L HEPES (10 mM) (Sigma; H-3375), 0.35 g/L NaHCO3 (4.2 mM) (Sigma; S-6297), pH to 7.4 with 5N NaOH) (with the appropriate amount of DMSO so that the DMSO concentration remains constant at all dilutions). The resulting “compound” plate contained serial dilutions of six compounds in duplicate.
^3H-GABA was diluted into HBSS buffer to a final concentration of 4,000 cpm/μl. Enough solution was prepared to allow addition of 25 μl/well (the final concentration was 100,000 cpm/well).
HEK-TREx-hTAUT cells, plated in 96-well plates and treated with tetracycline (or tet analog (e.g., doxycycline), were removed from the incubator. Growth media was removed from the cells, and the cells were washed twice in room temperature HBSS (100 μl/well/wash) using a 96-well plate washer (Bio Tek ELX405). Alternatively, cells were washed manually with equivalent volumes using a multichannel pipettor. Immediately before beginning the assay, the final 100 μl wash solution was removed from the cells by aspiration.
Using a 96-well pipettor, 25 μl from the “compound” plate was added to each well of the cell plate. The assay was started by adding 25 μl of the ^3H-GABA working solution. The plate was incubated at room temperature for 15 minutes. The assay was stopped by washing the cells four times with ice-cold HBSS buffer using a ELX 405 plate washer (100 μl buffer/well/wash) having an angled buffer dispenser.
Scintillation fluid (200 μl) (Optiphase Supermix (Perkin Elmer) was added to each well, and the plate was covered with a 96-well adhesive plate cover and placed on a shaker for 10 minutes. The plates were counted on a 96-well plate scintillation counter for 60 sec/well. The data were analyzed using a sigmoidal dose response curve-fitting program ((Prism, GraphPad, Inc, San Diego, Calif.; equation: one-site competition).
FIG. 7 depicts the results of a competition experiment using HEK-TREx-TAUT1 cells. ^3H-taurine was used as the substrate and unlabeled taurine was used as the competitor. The competition experiment was performed as described in Example 7. Non-specific uptake was determined by measuring the uptake into cells not induced to express the transporter (“no tet”). […] In control cells, uptake of labeled taurine remained at background levels and was largely unaffected by an excess of unlabeled taurine.
These four compounds, IAA, R,S-Baclofen, GPA, and GABA, were tested in both competition and direct uptake assays. One notable difference in the competition assay format compared to the literature is that ^3H-GABA was used, rather than ^3H-taurine, as the radiolabel. […] Therefore, to develop a competition assay that is as sensitive as possible, ^3H-GABA, a substrate with a much […] affinity, was used.

TAUT1 [2] = target: T1, TAUT1; conditions: reported value, source not given; cited from earlier work
TAUT1 [3] = target: T1, TAUT1; assay: ^3H-taurine uptake by Xenopus oocytes injected with TAUT1 cRNA; assay type: cell-based; design: expressed in transfected cells; host or cells: Xenopus oocytes injected with TAUT1 cRNA; conditions: oocytes expressing TAUT1 vs noninjected controls (FIG. 2)
PgP = PgP (Homo sapiens, UniProt P08183); assay: Cellular transwell monolayer efflux assay, MDCK cells with TREx-PgP
Method: A third type of efflux transporter assay is the cellular transwell monolayer efflux assay. In this assay, cells expressing efflux transporters, such as MDCK cells containing the TREx-PgP expression vector (Invitrogen Inc., Carlsbad, Calif.), are seeded and grown in transwell dishes on filter membranes made of substances such as polycarbonate. The cells form a polarized monolayer. The transwell dishes have apical and basolateral chambers that are separated by the filter membrane on which the polarized monolayer is situated. Assays are performed by placing a test compound in either the apical or basolateral chamber, followed by sampling the opposite chamber after a predetermined period of time such as 60-120 minutes and measuring the amount of the test compound. The test compound can be measured by methods such as radiolabel detection or LC-MS-MS analysis. Assays are performed in the presence and absence of an efflux transporter inhibitor or competitor. Efflux transporter inhibitors or competitors increase apical to basolateral transport and decrease basolateral to apical transport of compounds that are efflux transporter substrates. Apparent permeability (Papp) of test compounds is measured. […] Test compounds that generate ratios between 1.5 and 2.0 require additional testing to determine if they are efflux transporter substrates. An agent, conjugate, or conjugate moiety that is a TAUT1 substrate and also generates a ratio of greater than 2.0 can be modified.
MDCK cells transfected with the tetracycline-inducible TREx-PgP expression vector were seeded on polycarbonate filter membranes in transwell dishes and grown for 3-5 days, yielding a polarized monolayer with tight junctions between cells. […] The left set of bars depicts apical to basolateral transport, while the right set of bars depicts basolateral to apical transport.

[4] = substrate: NCCCC(=O)O; assay: cells, lysate or membranes; conditions: other: direct uptake into HEK-TREx-TAUT1 cells, +TET minus no TET; 15 min, room temperature
[5] = 2.5 nM ^3H-vinblastine, in the presence of 250 μM verapamil vs absence (FIG. 6)

PgP, sequence (P08183 whole entry): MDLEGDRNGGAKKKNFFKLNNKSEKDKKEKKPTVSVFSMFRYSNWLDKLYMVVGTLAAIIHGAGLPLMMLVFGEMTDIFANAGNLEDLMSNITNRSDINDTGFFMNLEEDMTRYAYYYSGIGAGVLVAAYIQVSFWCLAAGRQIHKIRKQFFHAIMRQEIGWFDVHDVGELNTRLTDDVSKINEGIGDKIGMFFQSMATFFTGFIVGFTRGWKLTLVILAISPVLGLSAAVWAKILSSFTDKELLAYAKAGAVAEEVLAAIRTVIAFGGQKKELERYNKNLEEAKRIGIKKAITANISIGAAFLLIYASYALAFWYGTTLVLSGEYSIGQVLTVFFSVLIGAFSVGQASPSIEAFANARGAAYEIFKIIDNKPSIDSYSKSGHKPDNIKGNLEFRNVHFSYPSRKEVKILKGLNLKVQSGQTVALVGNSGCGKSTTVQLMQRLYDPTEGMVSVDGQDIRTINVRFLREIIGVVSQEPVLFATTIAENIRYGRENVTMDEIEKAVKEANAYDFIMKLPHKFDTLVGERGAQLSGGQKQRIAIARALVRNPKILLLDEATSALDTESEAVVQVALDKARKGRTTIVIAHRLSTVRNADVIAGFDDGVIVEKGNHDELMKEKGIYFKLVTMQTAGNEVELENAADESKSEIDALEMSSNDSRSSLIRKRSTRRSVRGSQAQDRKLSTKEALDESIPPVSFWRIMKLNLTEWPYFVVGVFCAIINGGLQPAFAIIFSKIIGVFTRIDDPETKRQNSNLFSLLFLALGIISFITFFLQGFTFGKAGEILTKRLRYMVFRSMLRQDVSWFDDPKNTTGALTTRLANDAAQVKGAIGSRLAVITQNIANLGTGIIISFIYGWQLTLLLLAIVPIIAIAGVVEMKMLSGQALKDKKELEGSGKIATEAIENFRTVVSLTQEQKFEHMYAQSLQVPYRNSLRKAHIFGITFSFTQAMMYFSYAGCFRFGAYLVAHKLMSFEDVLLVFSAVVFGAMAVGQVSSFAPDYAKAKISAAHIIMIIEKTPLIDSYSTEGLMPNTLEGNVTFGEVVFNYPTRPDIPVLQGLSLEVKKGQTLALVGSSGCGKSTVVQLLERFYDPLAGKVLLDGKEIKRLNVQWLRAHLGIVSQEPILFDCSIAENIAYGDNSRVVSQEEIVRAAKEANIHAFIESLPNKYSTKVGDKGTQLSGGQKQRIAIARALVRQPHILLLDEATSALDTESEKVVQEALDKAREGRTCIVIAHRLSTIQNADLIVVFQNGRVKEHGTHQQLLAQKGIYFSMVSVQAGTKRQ

IC50 (TAUT1 [1]; HEK-TREx-TAUT1 cells induced with tetracycline, ^3H-GABA radiolabel (taurine: ^3H-taurine per Example 9), 15 min, room temperature): 10 µM
radiolabel uptake (TAUT1 [1]; ^3H-taurine as radiolabel in HEK-TREx-TAUT1 cells, in a very short time): > 25 % of the input cpm
Molecule: NCCS(=O)(=O)O [Taurine]
uptake of labeled taurine with increasing unlabeled taurine (TAUT1 [1]; ^3H-taurine substrate, unlabeled taurine competitor, cells induced to express TAUT1 (FIG. 7)): the uptake of labeled taurine decreased as the concentration of unlabeled taurine increased
Reported Affinity for TAUT1 (TAUT1 [2]): 0.1 mM
^3H-taurine uptake (TAUT1 [3]): higher levels of ^3H-taurine uptake than noninjected controls

Molecule: CC[C@]1(O)C[C@@H]2CN(CCc3c([nH]c4ccccc34)[C@@](C(=O)OC)(c3cc4c(cc3OC)N(C)[C@H]3[C@@](O)(C(=O)OC)[C@H](OC(C)=O)[C@]5(CC)C=CCN6CC[C@]43[C@@H]65)C2)C1 [^3H-vinblastine]
Apical to basolateral transport (PgP; [5]): strongly increased
basolateral to apical transport (PgP; [5]): strongly decreased
PgP substrate status (PgP; conclusion from transwell transport with and without verapamil): substrate of PgP

B1: hTAUT1 (Homo sapiens) (protein)
chain: MATKEKLQCLKDFHKDILKPSPGKSPGTRPEDEAEGKPPQREKWSSKIDFVLSVAGGFVGLGNVWRFPYLCYKNGGGAFLIPYFIFLFGSGLPVFFLEIIIGQYTSEGGITCWEKICPLFSGIGYASVVIVSLLNVYYIVILAWATYYLFQSFQKELPWAHCNHSWNTPHCMEDTMRKNKSVWITISSTNFTSPVIEFWERNVLSLSPGIDHPGSLKWDLALCLLLVWLVCFFCIWKGVRSTGKVVYFTATFPFAMLLVLLVRGLTLPGAGAGIKFYLYPDITRLEDPQVWIDAGTQIFFSYAICLGAMTSLGSYNKYKYNSYRDCMLLGCLNSGTSFVSGFAIFSILGFMAQEQGVDIADVAESGPGLAFIAYPKAVTMMPLPTFWSILFFIMLLLLGLDSQFVEVEGQITSLVDLYPSFLRKGYRREIFIAFVCSISYLLGLTMVTEGGMYVFQLFDYYAASGVCLLWVAFFECFVIAWIYGGDNLYDGIEDMIGYRPGPWMKYSWAVITPVLCVGCFIFSLVKYVPLTYNKTYVYPNWAIGLGWSLALSSMLCVPLVIVIRLCQTEGPFLVRVKYLLTPREPNRWAVEREGATPYNSRTVMNGALVKPTHIIVETMM
Km [4]: 270 µM and 200 µM
